According to publication PMC5449191 (Nature plants, 2016):

Tests used:
CsACT = CsACT (Cucumis sativus, UniProt A0A097IYL7); assay: acetyltransferase assay, LC-MS of product; format: biochemical; conditions: 400 μM acetyl-CoA, 400 μM substrate, pH 7.5, 31°C
CmACT = CmACT (Cucumis melo, UniProt A0A1S3CAV7); assay: acetyltransferase assay, LC-MS of product; format: biochemical; conditions: 400 μM acetyl-CoA, 400 μM substrate, pH 7.5, 31°C

| SMILES | acetyltransferase assay, LC-MS of product (CsACT) | acetyltransferase assay, LC-MS of product (CmACT; product CuB) | acetyltransferase assay, LC-MS of product (CmACT) |
| --- | --- | --- | --- |
| CC(C)(O)/C=C/C(=O)[C@](C)(O)[C@H]1[C@H](O)C[C@@]2(C)[C@@H]3CC=C4[C@@H](C[C@H](O)C(=O)C4(C)C)[C@]3(C)C(=O)C[C@]12C [CuD] | acylate a wide range of substrates (e.g., CuD, CuI, and deacetyl CuC) | able to acetylate the cucurbitacin precursors CuD and CuI | – |
| CC(C)(O)/C=C/C(=O)[C@](C)(O)[C@H]1[C@H](O)C[C@@]2(C)[C@@H]3CC=C4[C@@H](C=C(O)C(=O)C4(C)C)[C@]3(C)C(=O)C[C@]12C [CuI] | – | – | acylate a wide range of substrates (e.g., CuD, CuI, and deacetyl CuC) |
| CC(C)(O)/C=C/C(=O)[C@](C)(O)[C@H]1[C@H](O)C[C@@]2(C)[C@@H]3CC=C4[C@@H](CC[C@H](O)C4(C)C)[C@]3(CO)C(=O)C[C@]12C [deacetyl CuC] | acylate a wide range of substrates (e.g., CuD, CuI, and deacetyl CuC) | – | – |
